Legend:
[1] = Linoleate peroxidative reaction inhibition (AAPH, linoleate micellar solution); type: biochemical; settings: for Inhibition rate (%): specimen 25 μM; for inhibition rate for linoleate hydroperoxide generation: as stated in the description ("Studies indicate")
Description: Chart 4 indicates the linoleate peroxidative reaction inhibition action of tocotrienol, a-tocopherol, and Coenzyme Q10. The linoleate micellar solution comprised 300mM linoleate, 5 mM 2,2′-Azobis(2-amidinopropane) dihydrochloride (AAPH), and a specimen (tocotrienol, α-tocopherol, or Coenzyme Q10) dissolved in 0.3% Lubrol Px—20 mM sodium phosphate buffer (pH 7.4). The reaction composition reacted at room temperature for one hour, and then 0.5 ml of methanol was added to the composition, and then 2.0 ml of 70% methanol was added to the composition. The absorbance measurement was conducted at 234 nm.

[2] = DPPH radical removal ability; type: biochemical; settings: for IC50: DPPH radical removal
Description: Chart 3 indicates the diphenylpicrylhydrazl (DPPH) radical removal ability of torolox, tocotrienol, α-tocopherol, and coenzyme Q10. The reaction composition was carried out in a DPPH solution comprising 8 mg DPPH per 100 ml of 50% ethanol. The total reaction composition comprised 0.2 ml of the specimen (torolox, tocotrienol, α-tocopherol, or coenzyme Q10) and 1.8 ml of the aforementioned DPPH solution. The total reaction composition reacted at room temperature in a dark place for 30 minutes. The absorbance measurement was carried out at 517 nm.

For `Cc1c(C)c2c(c(C)c1O)CC[C@@](C)(CCC[C@H](C)CCC[C@H](C)CCCC(C)C)O2` [α-Tocopherol, α-tocopherol], the “Inhibition rate (%)” value [1] was 42.2%, the IC50 [2] was 51.1 µM and the “Inhibition rate (%)” value ([2]; specimen 25 μM) was 15.2%. The “Inhibition rate (%)” value ([2]; specimen 50 μM) was 41% and the “Inhibition rate (%)” value ([2]; specimen 100 μM) was 87.6%.

With tocotrienol the “Linoleate peroxidation inhibition, result in words” value [1] was “inhibition at the same level as a-tocopherol”, the “inhibition rate for linoleate hydroperoxide generation” value [1] was “about 40%” and the “Inhibition rate (%)” value [1] was 42.2%. The “DPPH inhibition, result in words” value [2] was “approximately the same level as a-tocopherol”, the IC50 [2] was 55 µM and the “Inhibition rate (%)” value ([2]; specimen 25 μM) was 16.3%. The “Inhibition rate (%)” value ([2]; specimen 50 μM) was 41% and the “Inhibition rate (%)” value ([2]; specimen 100 μM) was 79.8%.

For `COC1=C(OC)C(=O)C(C/C=C(\C)CC/C=C(\C)CC/C=C(\C)CC/C=C(\C)CC/C=C(\C)CC/C=C(\C)CC/C=C(\C)CC/C=C(\C)CC/C=C(\C)CCC=C(C)C)=C(C)C1=O` [Coenzyme Q10, coenzyme Q10], the “Linoleate peroxidation inhibition, result in words” value [1] was “did not exhibit inhibition action”, the “inhibition rate for linoleate hydroperoxide generation” value [1] was “no such inhibition” and the “DPPH inhibition, result in words” value [2] was “did not exhibit inhibition action”. The “Inhibition rate (%)” value ([2]; specimen 25 μM) was less than 0%, the “Inhibition rate (%)” value ([2]; specimen 50 μM) was less than 0% and the “Inhibition rate (%)” value ([2]; specimen 100 μM) was less than 0%.

In the case of `Cc1c(C)c2c(c(C)c1O)CCC(C)(C(=O)O)O2` (centres unmarked) [Torolox, torolox], the IC50 [2] is reported as 43.8 µM, the “Inhibition rate (%)” value ([2]; specimen 25 μM) is reported as 19.1% and the “Inhibition rate (%)” value ([2]; specimen 50 μM) is reported as 48.2%. For the same compound, the “Inhibition rate (%)” value ([2]; specimen 100 μM) was 94.9%.

— US20170128412A1, “SYSTEM AND METHOD FOR IMPROVED BLOOD CIRCULATION AND MAINTAINING MITOCHONDRIAL ENERGY PRODUCTION” (priority 2015, published 2017)
